Experiment: xn = mol fraction of the nth substance listed
Settings: 100 kPa

CCCC[n+]1ccn(C)c1.O=S(=O)([N-]S(=O)(=O)C(F)(F)F)C(F)(F)F + CO
Settings	speed of sound [m/s]	viscosity [mPa·s]
298.15 K, x2 = 0	1227.5	49.6
298.15 K, x2 = 0.2068	1218.3	34.37
298.15 K, x2 = 0.295	1213.6	28.65
298.15 K, x2 = 0.4004	1208.6	22.3
298.15 K, x2 = 0.4923	1202	17.55
298.15 K, x2 = 0.5956	1191.3	12.55
298.15 K, x2 = 0.7947	1159.2	5.11
298.15 K, x2 = 0.8978	1134.4	1.7
303.15 K, x2 = 0.2068	1206.7	28.28
303.15 K, x2 = 0.295	1202.3	23.6
303.15 K, x2 = 0.4923	1190.3	14.6
303.15 K, x2 = 0.5956	1180	10.52
303.15 K, x2 = 0.7056	1164.1	6.79
303.15 K, x2 = 0.7947	1146.7	4.38
303.15 K, x2 = 0.8978	1121.2	1.55
308.15 K, x2 = 0	1205.5	33.25
308.15 K, x2 = 0.0986	1201.6	28.87
308.15 K, x2 = 0.2068	1196	23.61
308.15 K, x2 = 0.295	1192.5	19.98
308.15 K, x2 = 0.4004	1186.7	15.74
308.15 K, x2 = 0.4923	1179.1	12.56
308.15 K, x2 = 0.5956	1169.2	9.2
308.15 K, x2 = 0.7056	1152.6	5.97
308.15 K, x2 = 0.7947	1134.5	3.97
308.15 K, x2 = 0.8978	1108.1	1.42
313.15 K, x2 = 0	1193.5	28
313.15 K, x2 = 0.0986	1190.8	24.53
313.15 K, x2 = 0.2068	1184.4	20.1
313.15 K, x2 = 0.295	1180.8	17.14
313.15 K, x2 = 0.4004	1175.5	13.55
313.15 K, x2 = 0.4923	1168	10.82
313.15 K, x2 = 0.5956	1158.3	8.03
313.15 K, x2 = 0.7056	1141.2	5.28
313.15 K, x2 = 0.7947	1122.6	3.54
313.15 K, x2 = 0.8978	1095.2	1.31
318.15 K, x2 = 0	1183.5	23.75
318.15 K, x2 = 0.2068	1173.6	17.22
318.15 K, x2 = 0.4004	1164.9	11.7
318.15 K, x2 = 0.5956	1147.7	7.01
318.15 K, x2 = 0.7947	1110.5	3.13
318.15 K, x2 = 0.8978	1082.2	1.21
323.15 K, x2 = 0	1171.3	20.39
323.15 K, x2 = 0.0986	1169.3	18.1
323.15 K, x2 = 0.2068	1162.4	14.96
323.15 K, x2 = 0.295	1160	12.89
323.15 K, x2 = 0.4004	1154.4	10.31
323.15 K, x2 = 0.4923	1146.6	8.33
323.15 K, x2 = 0.5956	1137.2	6.21
323.15 K, x2 = 0.7947	1098.7	2.81

CS(C)=O + CCCC[n+]1ccn(C)c1.O=S(=O)([N-]S(=O)(=O)C(F)(F)F)C(F)(F)F
Settings	speed of sound [m/s]	viscosity [mPa·s]
298.15 K, x1 = 0.0951	1232.7	40.36
298.15 K, x1 = 0.2074	1239.8	33.72
298.15 K, x1 = 0.2885	1246	28.98
298.15 K, x1 = 0.4003	1257.9	22.18
298.15 K, x1 = 0.5026	1269.8	17.18
298.15 K, x1 = 0.7066	1299.3	8.91
298.15 K, x1 = 0.8039	1329	5.97
298.15 K, x1 = 0.9012	1384.8	3.51
298.15 K, x1 = 1	1490.5	2.03
303.15 K, x1 = 0.0951	1221.2	32.94
303.15 K, x1 = 0.2074	1228.1	27.62
303.15 K, x1 = 0.4003	1245.8	18.3
303.15 K, x1 = 0.5903	1267.6	11.04
303.15 K, x1 = 0.7066	1286.2	8.01
303.15 K, x1 = 0.8039	1315.2	5.17
303.15 K, x1 = 0.9012	1369.9	3.15
303.15 K, x1 = 1	1473.6	1.84
308.15 K, x1 = 0.0951	1209.8	26.98
308.15 K, x1 = 0.2074	1216.8	22.9
308.15 K, x1 = 0.2885	1222.7	19.59
308.15 K, x1 = 0.4003	1233.9	15.42
308.15 K, x1 = 0.5026	1245.1	11.71
308.15 K, x1 = 0.7066	1273.2	6.73
308.15 K, x1 = 0.8039	1301.4	4.62
308.15 K, x1 = 0.9012	1355	2.84
313.15 K, x1 = 0.2885	1211.1	17.04
313.15 K, x1 = 0.4003	1221.8	13.35
313.15 K, x1 = 0.5026	1232.9	10.62
313.15 K, x1 = 0.7066	1260.2	5.96
313.15 K, x1 = 0.8039	1287.7	4.17
313.15 K, x1 = 0.9012	1340.2	2.57
318.15 K, x1 = 0.0951	1187.5	19.53
318.15 K, x1 = 0.2074	1194.2	16.67
318.15 K, x1 = 0.2885	1199.7	14.57
318.15 K, x1 = 0.4003	1210.1	11.47
318.15 K, x1 = 0.5026	1220.8	8.84
318.15 K, x1 = 0.5903	1229.8	7.4
318.15 K, x1 = 0.7066	1247.2	5.63
318.15 K, x1 = 0.8039	1274.4	3.71
318.15 K, x1 = 0.9012	1325.4	2.33
318.15 K, x1 = 1	1423.3	1.41
323.15 K, x1 = 0.0951	1176.3	16.81
323.15 K, x1 = 0.2074	1182.9	14.37
323.15 K, x1 = 0.2885	1188.1	12.56
323.15 K, x1 = 0.4003	1198.2	9.96
323.15 K, x1 = 0.5026	1208.5	7.69
323.15 K, x1 = 0.5903	1217.3	6.39
323.15 K, x1 = 0.7066	1233.9	5.01
323.15 K, x1 = 0.8039	1260.4	3.32
323.15 K, x1 = 1	1406.7	1.3

CCCC[n+]1ccn(C)c1.O=S(=O)([N-]S(=O)(=O)C(F)(F)F)C(F)(F)F + CS(C)=O
x2 = 0
Settings	speed of sound [m/s]	viscosity [mPa·s]
298.15 K	1227.5	49.6
308.15 K	1205.5	33.25
313.15 K	1193.5	28
323.15 K	1171.3	20.39

CO + CCCC[n+]1ccn(C)c1.O=S(=O)([N-]S(=O)(=O)C(F)(F)F)C(F)(F)F
x1 = 1
Settings	speed of sound [m/s]	viscosity [mPa·s]
298.15 K	1103.3	0.55
303.15 K	1086.9	0.51
308.15 K	1070.6	0.48
313.15 K	1054.5	0.45
318.15 K	1038.5	0.42
323.15 K	1022.5	0.41

Reference: a compilation of properties of binary mixtures (doi:10.1016/j.molliq.2017.03.027)
